The values below come from patent US6335322B1, “Therapeutic agents” (priority 1993, dated 2002).

Entries after “also recorded” stand apart in the source; their conditions may differ. Where two headings read alike, the source gives them in different places.

Data set [1] relates to brain metastasis of a melanoma. The data set is described as follows: Clonogenic agarose assay, melanoma brain metastasis biopsy. It is filed as cell-based, human. As to the method:
A biopsy was taken from the patient and placed immediately in a growth medium. […] Twenty-four hours before termination of the cultures (7 days) ^3H Thymidin was added. The activity of the test substance is thus quantified as cpm in a scintillation counter.

The next data set deals with TLX/5 lymphoma. In words: Anti-tumour activity against murine TLX/5 lymphoma. Particulars: FIG. 16; for Maximum increase in lifespan: i.p. days 3-7, 6.25-50 mg/kg/day, median of 5; for doses at which active (increase in life span): i.p. treatment for 5 days. It is filed as in vivo, CBA mice. As to the method:
CBA mice weighing 20-25 g were inoculated subcutaneously inguinally with 1×10^5, TLX/5 tumour cells day 0. […] Doses were in the range 6.25-50 mg/kg/day. There were 5 mice per treatment per group and 10 tumour-bearing controls. Activity was assessed in terms of increase in life span (ILS) versus controls.

The subject of data set [2] is Raji human B-lymphoma cells. In words: Raji leptomeningal carcinomatosis model in nude rats. The class given is in vivo. Particulars: for mean day of death: 3 bolus injections on day 1, 2 and 4. As to the method:
The model used is a tumour model in nude rats for leptomeningal growth of tumours. 1×10^6 cells of the Bcell tumour line Raji were injected into the spinal fluid through cistema magna (c.m.). of 4-5 weeks old nude rats. […] Anaesthetised animals were treated intracerebrally with a 40 μl injection into cistema magna with 3 or 4 bolus injections. Treatment was started 1 day after cell inoculation.

The conditions of data set [3]: rat, in vivo.
Procedure: (§2) Plasma concentrations of total radioactivity and of the metabolites were determined at different timepoints. Tissue concentrations of total radioactivity were determined from a range of tissues at different timepoints up to 120 hours following injection. Liver tissues were extracted and metabolite concentrations were determined up to 72 hours post injection.
Data set [4] relates to A549 cells (human lung carcinoma). In words: Cell inactivation, colony forming ability, A549. Particulars: FIG. 9; exposed for 24 hours. It is filed as cell-based. As to the method: (§1) Cell inactivation measured by means of loss of ability to form colonies was determined for several compounds. Cells used were of the established human cell lines of cancer cervix in situ origin, NHIK 3025, NHIK 3025/DDP, a cis-DDP-resistant variant of the same or A549 cells (human lung carcinoma). The cells were exposed to the test compound for 4 up till 24 hours. Test compounds were administered as micellar solution. Number of colonies were counted after about 12 days of incubation.
The cells were exposed for 24 hours.

Data set [5] relates to Raji human B-lymphoma cells. In words: Leukaemia model using Raji cells in SCID mice. It is filed as in vivo. As to the method:
SCID mice were injected intravenously with 1×10^6 Raji human B-lymphoma cells. […] Animals develop paralysis of the hind legs as a result of the tumour growth.

The subject of data set [6] is glioblastoma cell line U-118. In words: Glioblastoma U-118 subcutaneous tumour in nude mice, intratumoural injection. As to the method: A glioblastoma cell line U-118 (Uppsala) tissue culture was injected subcutaneously in nude mice. A small part (2×2 mm) of growing tumour was transferred to new mice. […] Depending on the actual tumour size, the animals received the same relative amount of test substance. The control was given saline water. The growth rate was recorded as relative tumour volume (RTV).

The test system of data set [7] is Molt 4 human lymphoma cells. In words: Molt 4 leptomeningal carcinomatosis model in nude rats. The class given is in vivo. The note with it: FIG. 12; treated 4x in cisterna magna. As to the method:
The model used is a tumour model in nude rats for leptomeningal growth of tumours. 10^6 cells of the T-cell tumour line Molt 4 were injected into the spinal fluid through cistema magna (c.m.) of 4-5 weeks old nude rats. The animals develop neurological symptoms after 20-22 days if untreated. Anaesthetised animals were treated intracerebrally with a 40 μl injection into cistema magna with 4 bolus injections. Treatment was started 1 day after cell inoculation. Test compounds were Ara-C-5′-elaidyl ester (in micelles) and Ara-C. Ara-C was administered both at maximal tolerable dose (MTD) and at an equimotar dose to Ara-C-5′-elaidyl ester. Control animals (treated with NaCl) developed symptoms from the central nervous system after approximately 20 days.

For the next data set, the system named is NHIK 3025/DDP cells. In words: Cell inactivation, colony forming ability, NHIK 3025/DDP. The class given is cell-based, human. Particulars: FIG. 8; 4 h treatment. As to the method:
as §1
The results here are obtained with 4 h treatment of NHIK 3025/DDP cells.

A short description of data set [8]: Comparative pharmacokinetic, distribution, metabolism and excretion, i.v. to male rats. The note with it: for Excretion of radioactivity: 14C-Ara-C-elaidate 5 mg/kg or 14C-Ara-C 2.4 mg/kg.
Procedure: as §2
Data set [9] has as its system PV/2b/35 hemangiosarcoma cells. The data set is described as follows: Anti-tumour activity in SCID mice with hemangiosarcoma cells. The class given is in vivo. Particulars: FIG. 17, 25 mg/kg/day. The text has this:
SCID mice were inoculated intraperitoneally with PV/2b/35 hemangiosarcoma cells. […] Controls were empty micelles, DMSO or PBS respectively. The animals were not treated during weekends. Survival was the endpoint of the study.

Another data set concerns NFkappaB. The data set is described as follows: Activation of the cellular transcription factor NFkappaB (β-galactosidase reporter, SW480 cells). It is filed as cell-based, human. The note with it: FIG. 15; exposure 4 h. As to the method: Human SW480 colon adenocarcinoma cells stably transfected with a CMV promotor/enhancer containing the gene for β-galactosidase were used. Activation of the transcription factor NFkappaB results in enhanced amount of the enzyme β-galactosidase in cytoplasma. The amount of β-galactosidase is quantified using optical density at 570 nm as parameter. The […] cells were incubated 2-3 days before exposure to the test compound for 4 h. The cells were washed and prepared, and optical density recorded for the different compounds.

In data set [10] the test system is glioblastoma taken from a patient. In words: Clonogenic agarose assay, glioblastoma biopsy. It is filed as cell-based, human. Particulars: FIGS. 1 and 2. As to the method:
A biopsy was taken from the patient and placed immediately in a growth medium. Tumour tissue was desegregated mechanically, and living cells were selected the chemotherapeutic test substance was added, BCNU (in water) and Ara-C and Ara-C esters (in micelles), and the cells were cultivated in a soft agarose medium. Twenty-four hours before termination of the cultures (7 days) ^3H Thymidin was added. The activity of the test substance is thus quantified as cpm in a scintillation counter.
The results here are obtained with a glioblastoma taken from a patient. The same response pattern is found in 8 other glioblastoma biopsies. […] The results are given as % of the untreated control. A count of 50% (CD50) is taken as promising regarding use in therapy of this actual cancer line. What is worth nothing here is the 10^1.5 higher concentration of Ara-C needed to obtain CD50 as compared with elaidyl esters.

For the compound `Nc1ccn([C@@H]2O[C@H](CO)[C@@H](O)[C@@H]2O)c(=O)n1` [Ara-C, 1-β-D-arabinofuranosylcytosine, reference compound], the “difference (CD50 concentration) between Ara-C and the 3′- and 5′-elaidyl esters” value in data set [1] (FIG. 3) was around 10 times. In the data set with TLX/5 lymphoma, the “Maximum increase in lifespan” value worked out at 32.7% and the “doses at which active (increase in life span)” value is reported as “only active at the dose 25 mg/kg”. Moreover, in data set [2] (FIG. 10), the “mean day of death” value is 13 days. In data set [2] (FIG. 11, 4 bolus doses day 1-4, Ara-C at MTD and at dose equimolar to Ara-C-elaidate), the effect on survival entry was “void of activity; also recorded: no effects”. Moreover, the “time up to which Ara-C is detectable in plasma” value in [3] (male) was determined as 24 h. The “liver concentration of Ara-C” value in [3] (male, 4 h) was “non-detectable levels after 4 hours”. Further, the “plasma levels of both Ara-C and Ara-U” value in data set [3] (male, 48 h) is recorded as “below the assay limit of detection at 48 h”. The “proportion of the dose in whole-blood” value in [3] (male, iv, 0.08 h) amounted to 7.76%.
As to `CCCCCCCCCCCC=CCCCCC(=O)OCC1OC(n2ccc(N)nc2=O)C(O)C1O` (stereo not drawn) [Ara-C-5′-petroseline ester], in data set [4], the “inactivation (colony forming ability) compared to Ara-C” value (“inactivation … compared to Ara-C” below) is reported as “enhanced effect”.
Consider `CCCCCCCCCCCCCCCCCC(=O)OCC1OC(n2ccc(N)nc2=O)C(O)C1O` (stereo not drawn) [Ara-C-5′-stearyl ester], for which, in [4], the “inactivation … compared to Ara-C” value is “highest inactivation”.
Take `CCCCCCCC/C=C/CCCCCCCC(=O)OC[C@H]1O[C@@H](n2ccc(N)nc2=O)[C@@H](O)[C@@H]1O` [Ara-C-elaidate, 5′-O-(Elaidoyl) 1-β-D-arabinofuranosylcytosine]: in the data set on TLX/5 lymphoma, the “Maximum increase in lifespan” value is listed as 47.2%; the “doses at which active (increase in life span)” value is “active at the doses 12.5 mg/kg and 25 mg/kg”. In addition, the “fraction of the molar dose of Ara-C giving similar anti-cancer effects” value in data set [5] (FIG. 13) is reported as 1/20. For the same compound, the mean survival result in data set [5] (FIG. 13, i.v. days 7, 9, 11, 13, 15, 20 mg/kg Ara-C-elaidate vs 200 mg/kg Ara-C) is “increased mean survival compared to control and Ara-C treated animals”. For the same compound, the mean survival time result in data set [5] (FIG. 14, i.p. once daily days 7-11, versus every other day) is recorded as “greatly prolonged”. The “increase of symptom free latency period as compared to Ara-C” value in data set [2] (FIG. 10, 3 bolus injections into cisterna magna on day 1, 2 and 4) stood at 135%. Moreover, the “mean day of death” value in data set [2] (FIG. 10) turned out to be 30.5 days. In addition, the “survival of one rat (considered cured)” value in data set [2] (FIG. 10, 3 bolus injections, no tumours at necropsy day 76) is “more than 70 days”. Besides, the “rats still alive and symptom-free at day 70” value in data set [2] (FIG. 11, 4 daily bolus doses day 1-4 into cisterna magna) was 3 out of 5. In addition, the CNS disturbance entry in [6] (FIG. 18, intratumoural injection) is reported as “nor was there noted any sign of CNS disturbance”. The “tumour growth (relative tumour volume)” value in data set [6] (FIG. 18, intratumoural injection of 10 mg/ml micellar solution) is reported as “complete stop in tumour growth”. Also, in data set [6] (mouse, in vivo), the toxic side effects result is on record as “no signs of toxic side effects”. Further, the “onset of death compared to Ara-C or control” value in data set [7] is “delayed”. Also, the “effect on colony forming ability compared to Ara-C” value with NHIK 3025/DDP cells is on record as “Enhanced effect”. Besides, in data set [3], the “initial whole blood and plasma concentration compared to Ara-C” value is given as “higher”; the “maximal concentrations compared to Ara-C” value is given as “lower”; the “maximal concentrations in most tissues compared to Ara-C” value was “notably higher and occurred at later timepoints”; the “plasma levels of both Ara-C and Ara-U” value was “can still be quantified at 72 h”. For the same compound, the “tissue concentration of total radioactivity compared to 14C-Ara-C” value in [3] was “higher at all timepoints up to 120 hours”. Moreover, in data set [3] (iv), the “concentration of active drug in RES tissues compared to Ara-C” value is on record as “significantly higher”, the “elimination from tissues compared to 14C-Ara-C” value is recorded as “much slower” and the “tissue distribution compared to Ara-C” value is on record as “significantly altered”. Besides, the “inactivation … compared to Ara-C” value in data set [4] is on record as “enhanced effect”. The Excretion of radioactivity in data set [8] (0-6 hours, i.v. male rats) is reported as 59.1 ± 3.7 % of dose. For the same compound, the Excretion of radioactivity in [8] (6-24 hours, i.v. male rats) is 34.1 ± 2.5 % of dose. Besides, the Excretion of radioactivity in data set [8] (24-48 hours, i.v. male rats) was 2.7 ± 0.8 % of dose. Also, the Excretion of radioactivity in data set [8] (48-72 hours, i.v. male rats) is given as 0.5 ± 0.1 % of dose. In data set [8] (72-96 hours, i.v. male rats), the Excretion of radioactivity was 0.2 ± 0.1 % of dose. Further, the “detection of metabolite Ara-U in liver” value in data set [8] (FIG. 19) is “no detection of Ara-U up to 24 hours”. Besides, in [8] (FIG. 19, after dosing the ester), the “time a therapeutic significant Ara-C level is sustained in liver” value is “at least 72 h”. The “time up to which Ara-C is detectable in plasma” value in data set [8] (FIG. 20) is 72 h. Moreover, the “metabolism of Ara-C to Ara-U” value in [8] (FIG. 20, plasma) was “less extensive, and starts later”. For the same compound, in data set [8] (Table 2), the “rate of excretion of radioactivity in urine compared to 14C-Ara-C” value is “slower”. Besides, the “proportion of the dose in whole-blood” value in [8] (at 0.08 hours after i.v. administration) was found to be 64.7%. In addition, the “excretion via the renal system compared to Ara-C” value in data set [8] (i.v. male rats) was “much slower”. Further, in data set [8] (table 1 and FIG. 20), the “conversion to Ara-U compared to Ara-C” value was “slower”. The survival entry in data set [9] (5 days per week) is “greatly enhanced”. The “survival compared to control” value in [9] (dissolved in DMSO) is reported as “enhanced survival compared to control”. Moreover, the “survival compared to control” value in [9] (prepared in micelles) is listed as “enhanced survival compared to control”. Further, the “β-galactosidase activity (optical density at 570 nm), NFkappaB activation” value in the data set with NFkappaB is given as “substantial increase in β-galactosidase activity”.
Take `O=NN(CCCl)C(=O)NCCCl` [BCNU, N,N-cis(2-chloroethyl)N-nitroso-urea]: the “higher concentration to give CD50 compared to the Ara-C esters” value in data set [1] (FIG. 4) is “more than 1×10^2”. In [10], the “concentration needed to obtain CD50, times higher than with the Ara-C esters” value is on record as “about 10 times” and the “concentration needed to obtain CD50 compared to Ara-C alone” value is given as “reasonably comparable”.
